Measurements from patent publication US5962525A, “6,7-disubstituted-2-aminotetralines active as immunomodulators and pharmaceutical compositions containing same” (Sigma-Tau, priority 1990, dated 1999).

Legend:
[1] = system: murine peritoneal exudate cells (PEC); assay: "In vitro-ex vivo" effect on the phagocytic activity of exudate peritoneal cells (SRBC phagocytosis); parameters: species or system mouse (B6 D2 F1); details: for SRBC per phagocytizing cell: average number of SRBC in each phagocyte
Description: Assessment of the "in vitro-ex vivo" effect of ST 557, ST 563, ST 564, ST 570, ST 608 and ST 626 on the phagocytic activity of exudate peritoneal cells (PEC)
Male B6 D2 F1 mice aged 6-8 weeks (5 animals each group) were used.
The compounds were administered i.p. (25 mg/kg/day), ST 557, ST 563 and ST 626 were also administered per os (100 mg/kg/day) from day -5 to day -1 (PEC harvesting at day 0).
The experimental procedure was substantially the same as that described by Williams et al., in "Methods in Immunology and Immunochemistry", Acad. Press. 5: 261 (1976).
In particular, 24 hours following the end of the treatment, PECs from each experimental group were harvested, pooled and their concentration was adjusted to 4×10^6 cells/ml.
To volumes of 250 μl of each PEC sample were added equal volumes of 0.4% SRBC (Sheep Red Blood Cells) opsonized with hyperimmune serum.
The samples (duplicate) were incubated for 1 hour and then subjected to hypotonic shock in order to remove the non-phagocytized SRBC. After restoring the osmolarity, the phagocytes were cytocentrifuged, stained with a differential dye and observed under the microscope.
The results were expressed as:
(a) percentage of cells that have phagocytized with respect to 100 phagocytizing cells;
(b) total number of phagocytized SRBC;
(c) average number of SRBC in each phagocyte.

[2] = system: murine peritoneal macrophages; tumor targets Daudi and CEM-CM3; assay: "In vitro-ex vivo" effect on the cytotoxic activity of peritoneal macrophages (lysis of 3H-TdR labelled tumor cells); parameters: species or system mouse (B6 D2 F1, C57B16); tumor targets human
Description: Assessment of the "in vitro-ex vivo" effect of ST 557, ST 563, ST 570 and ST 626 on the cytotoxic activity of peritoneal macrophages (M)
Male hybrid B6 D2 F1 aged 7-9 weeks and male inbred mice C57B16 aged 8 weeks were used (4 animals/group).
All the compounds were administered i.p. (25 mg/kg/day). ST 557 was also administered per os (100 mg/kg/day) from day -5 to day -1 (peritoneal exudate cell [PEC] harvesting at day 0).
PEC were obtained from sacrificed animals, 24 hours following the end of treatment, via repeated washings of the abdominal cavity. The peritoneal exudates obtained from each group of animals were pooled.
The macrophage percentage was assessed by counting in a Burker chamber; cell suspensions (concentration=2×10^6 M/ml) were prepared.
The macrophage cytotoxic activity was assessed using the following two tumor cell lines as targets: Daudi, derived from a human lymphoblastoma and CEM-CM3, derived from human lymphoblastic leukemia (both lines are disclosed in ATCC--American Type Culture Collection--Cell lines of hybridoma, 5th Ed.--1985).
The experimental procedure is substantially the same as that described by Herscowitz, H. B. (1981)--Manual of Macrophage Methodology. Dekker M, Editor.
In particular, samples of cell lines were labelled with ^3 H-TdR (tritiated thymidine) and their concentration was adjusted to 5×10^4 cells/ml. They were then added to the macrophage preparations (using 96-well microtiter plates) and the volumes were adjusted so as to obtain Effector (macrophage)/Target (tumor cell) ratios of 20:1; 40:1 and 80:1 in an overall volume of 0.3 ml/well.
Three replicates for each sample were prepared; after 48 and 72 hours of incubation at 37° C. in 5% CO2. Aliquots of 0.1 ml of supernatant were drawn out from each well and counted in a β-counter.
The macrophage cytotoxic activity results in a tumor cell lysis that causes the release of the radioactivity incorporated by the cells into the supernatant.
Based on the βeta-counter data (in cpm) this activity is expressed as the percentage of radioactivity released following lysis with respect to the radioactivity incorporated by the tumor cells.
The relevant formulas are as follows: [formula]
The measures carried out on the samples account for a certain degree of lysis occurring spontaneously in cultured tumor cells not exposed to macrophages. Total radioactivity incorporated by the tumor cells is calculated by conducting a lysis with 1% SDS in distilled water.

[3] = system: splenocytes; assay: "In vitro-ex vivo" effect on the mytogen (PHA, ConA, LPS)-induced splenocyte proliferation in mice immunodepressed with cyclophosphamide; parameters: species or system mouse (B6 D2 F1); details: for S.I. (stimulation index): with respect to the immunodepressed controls; for AUC (area under curve): immunodepressed
Description: Assessment of the "in vitro-ex vivo" effect of ST 557, ST 563 ST 564 on the mytogen (PHA, ConA, LPS)-Induced splenocyte proliferation in mice Immunodepressed with cyclotohosphamide
Male B6 D2 F1 mice aged 7-9 weeks (5 mice per group) were used.
The immunosuppressor (cyclophosphamide) was administered i.p. at the dose of 100 mg/kg at day -5. The compounds were administered i.p. (25 mg/kg/day) and per os (100 mg/kg/day) from day -5 to day -1 (spleen excision at day 0).
Splenocyte proliferation was induced by three different mytogens: PHA and ConA active on T-lymphocytes, and LPS active on B-lymphocytes. Each mytogen was tested at three different concentrations (suboptimal, optimal and superoptimal) corresponding to 0.5, 4 and 6 mcg/ml/well for PHA; 0.5, 4 and 8 mcg/ml/well for ConA and 0.5, 150 and 500 mcg/ml/well for LPS.
The experimental procedure is identical to that described in test 4.
The results are expressed as both AUC (see test 4) and S.I. In order to assess the efficacy of the immunosuppressor and the activity of the tested compounds, S.I. has been determined both for the immunodepressed controls (with respect to the normal controls) and for the immunodepressed treated animals (with respect to the immunodepressed controls), respectively. [formula]

[4] = 48 hours, E/T 20:1, 25 mg/kg/day i.p., B6 D2 F1
[5] = 48 hours, E/T 20:1, 25 mg/kg/day i.p., repeated experiment, B6 D2 F1
[6] = 48 hours, E/T 40:1, 25 mg/kg/day i.p., B6 D2 F1
[7] = 48 hours, E/T 40:1, 25 mg/kg/day i.p., repeated experiment, B6 D2 F1
[8] = 48 hours, E/T 80:1, 25 mg/kg/day i.p., repeated experiment, B6 D2 F1
[9] = 72 hours, E/T 20:1, 25 mg/kg/day i.p., B6 D2 F1
[10] = 72 hours, E/T 20:1, 25 mg/kg/day i.p., repeated experiment, B6 D2 F1
[11] = 72 hours, E/T 40:1, 25 mg/kg/day i.p., B6 D2 F1
[12] = 72 hours, E/T 40:1, 25 mg/kg/day i.p., repeated experiment, B6 D2 F1
[13] = 72 hours, E/T 80:1, 25 mg/kg/day i.p., repeated experiment, B6 D2 F1

| Structure (SMILES) | Fagocytizing cells ([1]; 25 mg/kg/day i.p.) [%] | Total n° SRBC phagocytized ([1]; 25 mg/kg/day i.p.) | SRBC per phagocytizing cell ([1]; 25 mg/kg/day i.p.) | Fagocytizing cells ([1]; 100 mg/kg/day os) [%] | Total n° SRBC phagocytized ([1]; 100 mg/kg/day os) | SRBC per phagocytizing cell ([1]; 100 mg/kg/day os) | % lysis of tumor target [2, 4] [%] | % lysis of tumor target [2, 5] [%] | % lysis of tumor target [2, 6] [%] | % lysis of tumor target [2, 7] [%] | % lysis of tumor target [2, 8] [%] | % lysis of tumor target [2, 9] [%] | % lysis of tumor target [2, 10] [%] | % lysis of tumor target [2, 11] [%] | % lysis of tumor target [2, 12] [%] | % lysis of tumor target [2, 13] [%] | S.I. (stimulation index) ([3]; ConA, 25 mg/kg/day i.p.) | S.I. (stimulation index) ([3]; ConA, 100 mg/kg/day os) | AUC (area under curve) ([3]; ConA, 25 mg/kg/day i.p.) | AUC (area under curve) ([3]; ConA, 100 mg/kg/day os) | further results |
| --- | --- | --- | --- | --- | --- | --- | --- | --- | --- | --- | --- | --- | --- | --- | --- | --- | --- | --- | --- | --- | --- |
| COc1cc2c(cc1OC)CC(NCC(O)c1ccc(C)cc1)CC2 (stereo not shown) [ST 563, 2-[(N-2-hydroxy-2-(4-methylphenyl)ethyl)amino]-6,7-dimethoxytetraline] | 42.5 | 146.0 | 3.40 | 58.5 | 164.0 | 2.80 | 9.1 ± 0.2 | 7.7 ± 0.6 | 15.4 ± 0.2 | 9.4 ± 0.7 | 16.0 ± 1.0 | 11.0 ± 0.1 | 12.7 ± 0.5 | 18.3 ± 0.1 | 14.9 ± 0.9 | 22.2 ± 1.4 | 1.31 | 0.84 | 666 ± 16 ×10^-3 | 619 ± 12 ×10^-3 | S.I. (stimulation index) ([3]; LPS, 25 mg/kg/day i.p.): 4.02; S.I. (stimulation index) ([3]; LPS, 100 mg/kg/day os): 0.41; AUC (area under curve) ([3]; LPS, 25 mg/kg/day i.p.): 3715 ± 200 ×10^-3; AUC (area under curve) ([3]; LPS, 100 mg/kg/day os): 3501 ± 360 ×10^-3; S.I. (stimulation index) ([3]; PHA, 25 mg/kg/day i.p.): 2.17; AUC (area under curve) ([3]; PHA, 25 mg/kg/day i.p.): 217 ± 14 ×10^-3 |
| COc1cc2c(cc1OC)CC(N(CC1CC1)CC1CC1)CC2 (stereo not shown) [ST 557, 2-[(N,N-dicyclopropylmethyl)amino]-6,7-dimethoxytetraline] | 29.6 | 93.6 | 3.20 | 59.0 | 190.5 | 3.23 | 10.7 ± 0.2 | 7.8 ± 0.7 | 24.6 ± 0.8 | 13.2 ± 0.7 | 32.4 ± 0.9 | 13.1 ± 0.3 | 13.0 ± 0.7 | 29.3 ± 0.9 | 18.7 ± 0.9 | 45.3 ± 0.9 | 1.50 | 0.92 | 763 ± 14 ×10^-3 | 675 ± 21 ×10^-3 | % lysis of tumor target ([2]; 48 hours, E/T 20:1, 25 mg/kg/day i.p., repeated experiment, C57B16 mice): 10.8 ± 0.6%; % lysis of tumor target ([2]; 48 hours, E/T 20:1, 100 mg/kg/day os, B6 D2 F1): 22.7 ± 0.6%; % lysis of tumor target ([2]; 48 hours, E/T 40:1, 25 mg/kg/day i.p., repeated experiment, C57B16 mice): 16.4 ± 0.8%; % lysis of tumor target ([2]; 48 hours, E/T 40:1, 100 mg/kg/day os, B6 D2 F1): 30.1 ± 0.7%; % lysis of tumor target ([2]; 48 hours, E/T 80:1, 25 mg/kg/day i.p., repeated experiment, C57B16 mice): 28.3 ± 0.5%; % lysis of tumor target ([2]; 48 hours, E/T 80:1, 100 mg/kg/day os, B6 D2 F1): 29.7 ± 0.9%; % lysis of tumor target ([2]; 72 hours, E/T 20:1, 25 mg/kg/day i.p., repeated experiment, C57B16 mice): 11.9 ± 0.7%; % lysis of tumor target ([2]; 72 hours, E/T 20:1, 100 mg/kg/day os, B6 D2 F1): 29.7 ± 1.2%; % lysis of tumor target ([2]; 72 hours, E/T 40:1, 25 mg/kg/day i.p., repeated experiment, C57B16 mice): 11.9 ± 0.4%; % lysis of tumor target ([2]; 72 hours, E/T 40:1, 100 mg/kg/day os, B6 D2 F1): 41.5 ± 1.3%; % lysis of tumor target ([2]; 72 hours, E/T 80:1, 25 mg/kg/day i.p., repeated experiment, C57B16 mice): 30.9 ± 0.1%; % lysis of tumor target ([2]; 72 hours, E/T 80:1, 100 mg/kg/day os, B6 D2 F1): 44.4 ± 0.3%; S.I. (stimulation index) ([3]; LPS, 25 mg/kg/day i.p.): 5.85; S.I. (stimulation index) ([3]; LPS, 100 mg/kg/day os): 0.97; AUC (area under curve) ([3]; LPS, 25 mg/kg/day i.p.): 6411 ± 214 ×10^-3; AUC (area under curve) ([3]; LPS, 100 mg/kg/day os): 4485 ± 433 ×10^-3; S.I. (stimulation index) ([3]; PHA, 25 mg/kg/day i.p.): 1.90; AUC (area under curve) ([3]; PHA, 25 mg/kg/day i.p.): 191 ± 10 ×10^-3 |
